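Dose response: 5 concentrations. Exposure: 48 h. Format: 96-well plates. Endpoint: linear interpolation; highest concentration if not reached. Here, GI50 denotes the concentration required for 50% inhibition of growth. TGI: total growth inhibition.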

This experiment deals with MDA-MB-468 breast. Kind of experiment: DTP human tumour cell line panel, 48 h.
On to `COc1cc(/C=C\c2cc(/C=C\c3ccc(O)c(OC)c3)n(C(=O)CNc3ccc(Cl)cc3)n2)ccc1O`, for which the GI50 (usually the concentration giving 50% growth inhibition) was 3170 nM and the total growth inhibition concentration (TGI) – broadly, the concentration at which net growth stops – worked out at 9690 nM.
With `COC(=O)c1ccc2c(c1)c1c(C)c3ccncc3c(C)c1n2C`, the GI50 was 767 nM and the concentration for total growth inhibition (TGI) was determined as 15200 nM.
In the same order, the values of `COc1cc(-c2ccc(NC(=O)NC3CC3)c(OC)c2)ccc1NC(=O)NC1CC1` are over 100000 nM and over 100000 nM.
Consider `CC(=O)C1CCC2C3CC=C4CC(SC(=N)N)CCC4(C)C3CCC12C` (configuration not stated), for which the GI50 was 1540 nM and the concentration for total growth inhibition (TGI) was determined as 2900 nM.
In the same order, the values of `CCOc1c(C#N)c2c(N)ncnc2n1C1OC(CO)C(O)C1O` (configuration not stated) are 1750 nM and 5980 nM.
In the same order, the values of `C/C=C(/C)C(=O)OC1C=C(CO)C(=O)C(OC(=O)C(C)(O)C(C)Cl)C1C(C)C` (configuration not stated) are 1050 nM and 2800 nM.
In the same order, the values of `O=C(Nc1nc(-c2ccc(Cl)cc2)nc2c1sc(=S)n2-c1ccccc1)C(F)(F)F` are 3790 nM and 20500 nM.
`Oc1ccc(CSc2nnc(-c3ccc(Cl)cc3)o2)c2cccnc12`: the GI50 was 2470 nM and the TGI was over 100000 nM.
With `CCCCCCN(C)Cc1ccc(OCCOc2ccc(CN(C)CCCCCC)cc2)cc1`, the GI50 was 1160 nM and the TGI turned out to be 2480 nM.
In the same order, the values of `COc1ccc(/C=C\c2cc(OC)c(OC)c(OC)c2)c(O)c1O` are 74.1 nM and 21400 nM.
In the same order, the values of `CN1CCN(Cc2ccc(NC(=O)c3cncc(C#Cc4cnn5ccccc45)c3)cc2C(F)(F)F)CC1` are 965 nM and 2080 nM.
In the same order, the values of `O=C(Nc1cccc(Cl)c1)c1cc(N=Nc2ccc([N+](=O)[O-])cc2Cl)ccc1O` are 2910 nM and over 100000 nM.
As for `CCOC(=O)c1csc(NC(=O)COc2cccc(/C=C3\CSc4ccccc4C3=O)c2)n1`, the 50% growth inhibitory concentration (GI50) was 66.1 nM and the TGI stood at 185 nM.
Regarding `C=C1CCC2C3(C)COC(c4ccc(Cl)cc4)OC3CCC2(C)C1/C=C/C1=CCOC1=O` (configuration not stated), the GI50 is 502 nM and the total growth inhibition concentration (TGI) stood at 6250 nM.
In the same order, the values of `O=C(Nc1ccc2c(c1)OCO2)C(=O)c1c[nH]c2cc(F)ccc12` are 5700 nM and 67900 nM.
For the molecule `Nc1nc(N)c2c(n1)NC(c1ccc(Cl)cc1)CC(c1ccc(Nc3nc(NCCO)nc(Nc4ccc(Cl)cc4)n3)cc1)=N2` (configuration not stated), the GI50 was 1390 nM and the TGI was found to be 2790 nM.
For `CC(C)(C)c1ccc(O)c(CN(Cc2cc(C(C)(C)C)ccc2O)C2CCCCC2)c1`, the GI50 was 4400 nM and the TGI came out at 19200 nM.
For `O=S(=O)(Nc1ccc2ccccc2c1)c1ccc(-c2cnc(C3CC3)o2)cc1`, the GI50 was 327 nM and the TGI was 12000 nM.
In the case of `CC[C@@H](C)Nc1cc(C(=O)NC2CC3CCC(C2)N3c2ccc(C(=O)C3CC3)cn2)c(C)cc1C(N)=O` (some centres not stated), the 50% growth inhibitory concentration (GI50) is 18.9 nM and the TGI was 83.8 nM.
In the same order, the values of `COc1cc2ncn(-c3cc(OCc4ccccc4C(F)(F)F)c(C(C)=O)s3)c2cc1OC` are over 23300 nM and over 25000 nM.
In the same order, the values of `CC(C)CCC(=O)[C@@H](C)[C@H]1[C@@H](OC2OCC(O)C(O)C2NS(C)(=O)=O)C[C@H]2[C@@H]3CC=C4C[C@@H](O)CC[C@]4(C)[C@H]3CC[C@]12C` (some centres not stated) are 3380 nM and 11200 nM.
`O=C(Nc1cccnc1)c1ccc2ccc3ccc(C(=O)Nc4cccnc4)nc3c2n1`: the GI50 was 69.7 nM and the total growth inhibition concentration (TGI) was determined as 442 nM.
In the same order, the values of `O=C(Cn1c(C(=O)c2ccccc2)nc2ccccc21)c1ccc(F)cc1` are 2020 nM and 16600 nM.
In the case of `CC(C)(C)NC/C(=C\c1ccccc1)C(=O)c1ccccc1`, the GI50 was 713 nM and the TGI was 2180 nM.
In the same order, the values of `Cc1nnc(-c2ccc(C)c(-c3ccc(C(=O)NCc4ccc(Cl)cc4)cc3)c2)o1` are 2910 nM and 15100 nM.
Regarding `CC1(O)Cc2c(O)c3c(c(O)c2CC1O)C(=O)C=CC3=O` (configuration not stated), the GI50 was 553 nM and the total growth inhibition concentration (TGI) turned out to be 1930 nM.
